Experimental data taken from patent publication US10519169B2, “3-(1H-pyrrolo[2,3-C]pyridin-2-yl)-1 H-pyrazolo[4,3-B]pyridines and therapeutic uses thereof” (Samumed, LLC, priority 2015, dated 2019).

Assays:
[1] = test system: primary human mesenchymal stem cells (hMSCs); assay: Chondrogenesis induction in hMSCs (chondrogenic nodules); type: cell-based; conditions: 144 h, 6 days; for EC50: concentration required to induce 50% levels of chondrogenesis vs TGF-β3, read-out: Conc (nM) of 50% TGF-β3 activity; for Emax: nodules, relative to TGF-β3 positive control (10 ng/mL), read-out: Max. Activity as % TGF-β3 activity
Experimental: Representative compounds were screened using primary human mesenchymal stem cells (hMSCs) to determine their ability to induce chondrogenesis (process by which cartilage is developed).
Primary human mesenchymal stem cells (hMSCs) were purchased from Lonza (Walkersville, Md.) and expanded in Mesenchymal Stem Cell Growth Media (Lonza). Cells between passage 3 and 6 were used for the experiments.
Each compound was dissolved in DMSO as a 10 mM stock and used to prepare compound source plates. Serial dilution (1:3, 6-point dose-response curves from 2700 nM to 10 nM) and compound transfer was performed using the ECHO 550 (Labcyte, Sunnyvale, Calif.) into 96-well clear bottom assay plates (Greiner Bio-One) with appropriate DMSO backfill for a final DMSO concentration of 0.03%. hMSCs were plated at 20,000 cells/well in 250 μL/well Incomplete Chondrogenic Induction Medium (Lonza; DMEM, dexamethasone, ascorbate, insulin-transferrin-selenium [ITS supplement], gentamycin-amphotericin [GA-1000], sodium pyruvate, proline and L-glutamine). TGF-03 (10 ng/mL) was used as a positive control for differentiation while negative control wells were treated with 75 nL DMSO for normalization and calculating EC50 values. Cells were incubated at 37° C. and 5% CO2 for 6 days. To image chondrogenic nodules, the cells were fixed using 4% formaldehyde (Electron Microscopy Sciences), and stained with 2 μg/mL Rhodamine B (Sigma-Aldrich) and 20 μM Nile Red (Sigma-Aldrich) [Johnson K., et. al, A Stem Cell-Based Approach to Cartilage Repair, Science, (2012), 336(6082), 717-721]. The nodules imaged (4 images per well at 4× magnification) by excitation at 531 nm and emission at 625 nm and quantified using the CellInsight CX5 (Thermo Scientific). Number of nodules in each well was normalized to the average of 3 DMSO treated wells on the same plate using Excel (Microsoft Inc.). The normalized averages (fold change over DMSO) of 3 replicate wells for each compound concentration were calculated. Due to solubility limitations of some of the compounds, curve fitting was incomplete leading to inaccurate EC50 determinations.
Using TGF-β3 as a positive control, the concentration of representative compounds required to induce 50% levels of chondrogenesis is reported. In addition, the maximum activity of each compound and the respective dose that each compound reached maximum chondrogenesis activity is reported.

[2] = test system: Wnt activity (Sp5-Luc reporter, TCF/LEF binding sites) in SW480 colon carcinoma cells; assay: Wnt activity screening assay, Sp5-Luc reporter gene in SW480 cells; type: cell-based; conditions: Homo sapiens; for EC50: overnight incubation
Outline: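 SW480 cells stably transduced with an Sp5 promoter (eight TCF/LEF sites)–firefly luciferase lentiviral reporter, plated at 4,000 cells/well in 1% FBS medium with compounds (10-point 1:3 series from 10 μM, 0.1% DMSO) overnight at 37 °C. BrightGlo luminescence normalised to DMSO; EC50 by four-parameter fit, else % inhibition at 10 μM.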

Row | EC50 [1] | EC50 [2] | Structure (SMILES) | Emax [1] | inhibition at 10 µM ([2]; given for EC50 >10 μM, 10 μM, read-out: percent inhibition at 10 μM)
1 | 300 nM | 3650 nM | CS(=O)(=O)NCc1cc(F)cc(-c2cncc3[nH]c(-c4n[nH]c5ccc(-c6ccccn6)nc45)cc23)c1 [Compound 504, N-(3-Fluoro-5-(2-(5-(pyridin-2-yl)-1H-pyrazolo[4,3-b]pyridin-3-yl)-1H-pyrrolo[2,3-c]pyridin-4-yl)benzyl)methanesulfonamide] | 99% | –
2 | 2700 nM | > 10000 nM | Fc1cccc(-c2cncc3[nH]c(-c4n[nH]c5ccc(C6CCNCC6)nc45)cc23)c1 [Compound 505, 3-(4-(3-Fluorophenyl)-1H-pyrrolo[2,3-c]pyridin-2-yl)-5-(piperidin-4-yl)-1H-pyrazolo[4,3-b]pyridine] | 103% | 32.9%
3 | – | 1200 nM | Fc1ccccc1-c1cncc2[nH]c(-c3n[nH]c4ccc(-c5cn[nH]c5)nc34)cc12 [Compound 539, 3-(4-(2-Fluorophenyl)-1H-pyrrolo[2,3-c]pyridin-2-yl)-5-(1H-pyrazol-4-yl)-1H-pyrazolo[4,3-b]pyridine] | 40% | –
4 | 10 nM | 7020 nM | Cn1cc(-c2ccc3[nH]nc(-c4cc5c(-c6cccnc6)cncc5[nH]4)c3n2)cn1 [Compound 556, 5-(1-Methyl-1H-pyrazol-4-yl)-3-(4-(pyridin-3-yl)-1H-pyrrolo[2,3-c]pyridin-2-yl)-1H-pyrazolo[4,3-b]pyridine] | 52% | –
